From patent US10787450B2 (BRISTOL-MYERS SQUIBB COMPANY, priority 2016, dated 2020)
pIC50: −log10 of the molar value. Counter-ions that a name gives are not always drawn.

The compounds below were run against ROCK2 (Homo sapiens (Human), UniProt O75116) (assay: ROCK2 kinase inhibition assay (FITC peptide substrate, LABCHIP 3000 Reader)). Settings: 5 μM ATP, 1.5 μM peptide substrate.
Assay type: biochemical
Procedure: The effectiveness of compounds of the present invention as ROCK inhibitors can be determined in a 30 μL assay containing 20 mM HEPES, pH 7.5, 20 mM MgCl2, 0.015% Brij-35, 4 mM DTT, 5 μM ATP and 1.5 μM peptide substrate (FITC-AHA-AKRRRLSSLRA-OH) (SEQ ID NO. 1). Compounds were dissolved in DMSO so that the final concentration of DMSO was <2%, and the reaction was initiated with Rho kinase variants. After incubation, the reaction was terminated by the addition of EDTA and the phosphorylated and non-phosphorylated peptides separated using a LABCHIP® 3000 Reader (Caliper Life Sciences). […] Compounds were tested in dose-response format, and the inhibition of kinase activity was calculated at each concentration of compound. The inhibition data were fit using a curve-fitting program to determine the IC50; i.e., the concentration of compound required to inhibit 50% of kinase activity.
Representative examples were tested in the ROCK2 assay described above and found having ROCK2 inhibitory activity.

ROCK2, sequence (O75116 whole entry, species assumed): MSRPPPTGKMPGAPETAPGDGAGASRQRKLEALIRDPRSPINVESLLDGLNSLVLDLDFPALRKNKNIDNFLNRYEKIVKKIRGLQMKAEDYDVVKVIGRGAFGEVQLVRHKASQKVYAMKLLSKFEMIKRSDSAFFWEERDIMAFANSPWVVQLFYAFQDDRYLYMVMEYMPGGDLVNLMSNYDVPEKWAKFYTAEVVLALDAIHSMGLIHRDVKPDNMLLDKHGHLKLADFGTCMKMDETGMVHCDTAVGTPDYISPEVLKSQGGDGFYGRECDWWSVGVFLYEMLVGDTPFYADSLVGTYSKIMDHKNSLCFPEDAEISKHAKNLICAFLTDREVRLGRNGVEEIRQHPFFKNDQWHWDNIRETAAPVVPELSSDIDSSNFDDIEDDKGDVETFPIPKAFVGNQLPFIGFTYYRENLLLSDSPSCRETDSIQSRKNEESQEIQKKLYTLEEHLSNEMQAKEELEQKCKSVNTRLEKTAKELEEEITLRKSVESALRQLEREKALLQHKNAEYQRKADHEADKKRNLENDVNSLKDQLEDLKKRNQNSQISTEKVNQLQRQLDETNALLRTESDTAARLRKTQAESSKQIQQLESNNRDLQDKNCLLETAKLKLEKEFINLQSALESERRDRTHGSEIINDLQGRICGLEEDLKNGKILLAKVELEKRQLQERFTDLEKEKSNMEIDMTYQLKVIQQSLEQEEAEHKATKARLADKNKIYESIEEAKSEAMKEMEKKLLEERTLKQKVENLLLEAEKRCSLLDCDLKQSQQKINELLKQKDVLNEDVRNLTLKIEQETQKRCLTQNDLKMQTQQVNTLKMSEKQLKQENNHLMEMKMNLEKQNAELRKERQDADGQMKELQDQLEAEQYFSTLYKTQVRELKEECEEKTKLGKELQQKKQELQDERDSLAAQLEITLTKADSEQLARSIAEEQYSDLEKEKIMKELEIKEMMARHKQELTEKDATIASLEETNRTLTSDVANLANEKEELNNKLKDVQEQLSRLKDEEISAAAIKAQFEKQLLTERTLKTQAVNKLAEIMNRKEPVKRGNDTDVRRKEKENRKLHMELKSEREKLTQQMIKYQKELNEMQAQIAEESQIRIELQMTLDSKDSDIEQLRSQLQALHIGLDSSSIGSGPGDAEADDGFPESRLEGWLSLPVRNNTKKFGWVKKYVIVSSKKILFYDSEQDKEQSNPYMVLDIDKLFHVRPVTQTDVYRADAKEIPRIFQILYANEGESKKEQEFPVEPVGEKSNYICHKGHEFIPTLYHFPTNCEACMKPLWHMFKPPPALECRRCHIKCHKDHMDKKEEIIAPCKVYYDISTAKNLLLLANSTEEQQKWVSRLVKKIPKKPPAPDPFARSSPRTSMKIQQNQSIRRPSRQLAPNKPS

COc1cccc(NC2C(=O)N(c3ccc(-c4cn[nH]c4)cc3)CC23CCN(C(C)=O)CC3)c1 (stereo not drawn) [Example 249, -(4-(1H-pyrazol-4-yl)phenyl)-8-acetyl-4-((3-methoxy-phenyl)amino)-2,8-diazaspiro [4.5]decan-3-one] and COc1cccc(NC2C(=O)N(c3ccc(-c4cn[nH]c4)cc3)CC23CCN(CC(C)(C)O)CC3)c1 (stereo not drawn) [Example 253, 2-(4-(1H-pyrazol-4-yl)phenyl)-8-(2-hydroxy-2-methylpropyl)-4-((3-methoxy-phenyl)amino)-2,8-diazaspiro [4.5]decan-3-one] fall in the same range of pIC50: 5.52 to 6.60 for the first, 5.52 to 6.60 for the second.

COc1cccc(CN2C(=O)N(c3ccc(-c4cn[nH]c4)cc3)CC23CCN(C(=O)[C@@H](C)O)CC3)c1 [Example 178, (R)-3-(4-(1H-pyrazol-4-yl)phenyl)-8-(2-hydroxypropanoyl)-1-(3-methoxybenzyl)-1,3,8-triazaspiro[4.5]decan-2-one] and COc1cccc(CN2C(=O)N(c3ccc(-c4cn[nH]c4)cc3)CC23CCN(C(=O)CO)CC3)c1 [Example 176, 3-(4-(1H-pyrazol-4-yl)phenyl)-8-(2-hydroxyacetyl)-1-(3-methoxybenzyl)-1,3,8-triazaspiro[4.5]decan-2-one] cannot be ordered by pIC50: greater than 8.52 for the first, greater than 8.52 for the second.

Compared with O=C1N(c2ccc(-c3cn[nH]c3)cc2)CC2(CCOCC2)N1CC1CCCCC1 [Example 30, 3-(4-(1H-pyrazol-4-yl)phenyl)-1-(cyclohexylmethyl)-8-oxa-1,3-diazaspiro[4.5]decan-2-one], O=C1N(c2ccc(-c3cn[nH]c3)cc2)CC2(CCNCC2)N1CC1CCCCC1 [Example 67] is higher in pIC50: 6.60 to 7.52 for the first, 7.52 to 8.52 for the second. The second is the more potent here.

COc1cccc(CN2C(=O)N(c3ccc(-c4cn[nH]c4)c(OC)n3)CC23CCN(C(=O)CN(C)C)CC3)c1 [Example 218, 8-(2-(dimethylamino)acetyl)-3-(6-methoxy-5-(1H-pyrazol-4-yl)pyridin-2-yl)-1-(3-methoxybenzyl)-1,3,8-triazaspiro[4.5]decan-2-one] and COC(=O)N1CCC2(CC1)CN(c1ccc(-c3cn[nH]c3)c(OC)n1)C(=O)N2Cc1cccc(OC)c1 [Example 102, methyl 3-(6-methoxy-5-(1H-pyrazol-4-yl)pyridin-2-yl)-1-(3-methoxybenzyl)-2-oxo-1,3,8-triazaspiro[4.5]decane-8-carboxylate] cannot be ordered by pIC50: greater than 8.52 for the first, greater than 8.52 for the second.

COc1cc(F)cc(CN2C(=O)N(c3ccc(-c4cn[nH]c4)cc3)CC23CCN(CC(F)F)CC3)c1 [Example 132, 3-(4-(1H-pyrazol-4-yl)phenyl)-8-(2,2-difluoroethyl)-1-(3-fluoro-5-methoxybenzyl)-1,3,8-triazaspiro[4.5]decan-2-one] and COc1cccc(CN2C(=O)N(c3ccc(-c4cn[nH]c4)c(OC)n3)CC23CCN(CC(F)F)CC3)c1 [Example 135, 8-(2,2-difluoroethyl)-3-(6-methoxy-5-(1H-pyrazol-4-yl)pyridin-2-yl)-1-(3-methoxybenzyl)-1,3,8-triazaspiro[4.5]decan-2-one] cannot be ordered by pIC50: greater than 8.52 for the first, greater than 8.52 for the second.

COCCOC(=O)N1CCC2(CC1)CN(c1ccc(-c3cn[nH]c3)cc1)C(=O)N2Cc1cccc(OC)c1 [Example 98, 2-methoxyethyl 3-(4-(1H-pyrazol-4-yl)phenyl)-1-(3-methoxybenzyl)-2-oxo-1,3,8-triazaspiro[4.5]decane-8-carboxylate] and COc1cccc(CN2C(=O)N(c3ccc(-c4cn[nH]c4)cc3)CC23CCNCC3)c1 [Example 57, 3-(4-(1H-pyrazol-4-yl)phenyl)-1-(3-methoxybenzyl)-1,3,8-triazaspiro[4.5]decan-2-one] cannot be ordered by pIC50: greater than 8.52 for the first, greater than 8.52 for the second.

Compared with O=C1N(c2ccc(-c3cn[nH]c3)cc2)CC2(CCNCC2)N1Cc1cccc(OCC2CC2)c1 [Example 60, 3-(4-(1H-pyrazol-4-yl)phenyl)-1-(3-(cyclopropylmethoxy)benzyl)-1,3,8-triazaspiro[4.5] decan-2-one, TFA], O=C(c1cccc(CN2C(=O)N(c3ccc(-c4cn[nH]c4)cc3)CC23CCOCC3)c1)N1CC[C@H](O)C1 [Example 44, (S)-3-(4-(1H-pyrazol-4-yl)phenyl)-1-(3-(3-hydroxypyrrolidine-1-carbonyl)benzyl)-8-oxa-1,3-diazaspiro[4.5]decan-2-one] is lower in pIC50: 7.52 to 8.52 for the first, 6.60 to 7.52 for the second.

Compared with CCc1nc(N2CC3(CCN(C(=O)C4(O)CC4)CC3)N(Cc3cccc(OC)c3)C2=O)ccc1-c1cn[nH]c1 [Example 216, 3-(6-ethyl-5-(1H-pyrazol-4-yl)pyridin-2-y)-8-(1-hydroxycyclopropanecarbonyl)-1-(3-methoxybenzyl)-1,3,8-triazaspiro[4.5]decan-2-one], COc1cccc(CN2C(=O)N(c3ccc(-c4cn[nH]c4)c(OC)n3)CC23CCN(C(=O)OC(C)(C)C)CC3)c1 [Example 54, tert-butyl 3-(6-methoxy-5-(1H-pyrazol-4-yl)pyridin-2-yl)-1-(3-methoxybenzyl)-2-oxo-1,3,8-triazaspiro[4.5]decane-8-carboxylate] is higher in pIC50: 7.52 to 8.52 for the first, greater than 8.52 for the second. The second is the more potent here.

First: COc1cccc(CN2C(=O)N(c3ccc(-c4cn[nH]c4)c(OC)n3)CC23CCN(CCO)CC3)c1 [Example 146, 8-(2-hydroxyethyl)-3-(6-methoxy-5-(1H-pyrazol-4-yl)pyridin-2-yl)-1-(3-methoxybenzyl)-1,3,8-triazaspiro[4.5]decan-2-one]
Second: COc1cccc(CN2C(=O)N(c3ccc(-c4cn[nH]c4)cn3)CC23CCN(C(=O)C(C)(C)O)CC3)c1 [Example 199, 3-(5-(1H-pyrazol-4-yl)pyridin-2-yl)-8-(2-hydroxy-2-methylpropanoyl)-1-(3-methoxybenzyl)-1,3,8-triazaspiro[4.5]decan-2-one]
The pIC50 of the first is higher: greater than 8.52 for the first, 7.52 to 8.52 for the second.

Compared with O=C(NC1CCOC1)c1cccc(CN2C(=O)N(c3ccc(-c4cn[nH]c4)cc3)CC23CCOCC3)c1 (stereo not drawn) [Example 40, 3-((3-(4-(1H-pyrazol-4-yl)phenyl)-2-oxo-8-oxa-1,3-diazaspiro[4.5]decan-1-yl)methyl)-N-(tetrahydrofuran-3-yl)benzamide], CC(C)NC(=O)c1cccc(CN2C(=O)N(c3ccc(-c4cn[nH]c4)cc3)CC23CCOCC3)c1 [Example 34, 3-((3-(4-(1H-pyrazol-4-yl)phenyl)-2-oxo-8-oxa-1,3-diazaspiro[4.5]decan-1-yl)methyl)-N-isopropylbenzamide] is lower in pIC50: greater than 8.52 for the first, 7.52 to 8.52 for the second.

First: O=C1N(c2ccc(-c3cn[nH]c3)cc2)CC2(CCOCC2)N1Cc1ccc(Cl)c(Cl)c1 [Example 19, 3-(4-(1H-pyrazol-4-yl)phenyl)-1-(3,4-dichlorobenzyl)-8-oxa-1,3-diazaspiro[4.5]decan-2-one]
Second: CC(=O)N1CCC2(CC1)CN(c1ccc(-c3cn[nH]c3)cc1)C(=O)N2Cc1cc(F)ccc1C [Example 83, 3-(4-(1H-pyrazol-4-yl)phenyl)-8-acetyl-1-(5-fluoro-2-methylbenzyl)-1,3,8-triazaspiro[4.5]decan-2-one]
The pIC50 of the first is lower: 6.60 to 7.52 for the first, 7.52 to 8.52 for the second. The second is the more potent here.

First: COc1cccc(NC2C(=O)N(c3ccc(-c4cn[nH]c4)cc3)CC23CN(C(=O)C2COC2)C3)c1 (stereo not drawn) [Example 245, 6-(4-(1H-pyrazol-4-yl)phenyl)-8-((3-methoxy-phenyl)amino)-2-(oxetane-3-carbonyl)-2,6-diazaspiro [3.4]octan-7-one]
Second: Cc1c(F)cccc1CN1C(=O)N(c2ccc(-c3cn[nH]c3)cc2)CC12CCN(C(=O)OC(C)(C)C)CC2 [Example 49, tert-butyl 3-(4-(1H-pyrazol-4-yl)phenyl)-1-(3-fluoro-2-methylbenzyl)-2-oxo-1,3,8-triazaspiro[4.5]decane-8-carboxylate]
The pIC50 of the first is lower: 5.52 to 6.60 for the first, 7.52 to 8.52 for the second.
